Measured values reported in paper PMC12656268, “Venom Peptides Across Asian and American Tarantulas Utilize Dual Pharmacology to Target Activation and Fast Inactivation of Voltage-Gated Sodium Channels” (Toxins, 2025).
Entries after “also recorded” stand apart in the source; their conditions may differ. Positions of bridges follow the written chain, without caps; N, C: chain ends. Residues, ends and D or L forms follow the SMILES beside them.

Legend:
hNaV1.2 = hNaV1.2 (Homo sapiens, UniProt Q99250); experiment: hNaV1.2 peak current inhibition, automated whole-cell patch clamp (QPatch 16X); format: cell-based; settings: for IC50: HEK293 + β1, holding −80 mV, 20 ms step to 0 mV from −120 mV 200 ms prepulse, 5 min incubation, mean ± SEM, 3 to 9 independent experiments, read-out: IC50, inhibition of peak current, NaV1.2
hNaV1.2, sequence (Q99250 whole entry, canonical isoform): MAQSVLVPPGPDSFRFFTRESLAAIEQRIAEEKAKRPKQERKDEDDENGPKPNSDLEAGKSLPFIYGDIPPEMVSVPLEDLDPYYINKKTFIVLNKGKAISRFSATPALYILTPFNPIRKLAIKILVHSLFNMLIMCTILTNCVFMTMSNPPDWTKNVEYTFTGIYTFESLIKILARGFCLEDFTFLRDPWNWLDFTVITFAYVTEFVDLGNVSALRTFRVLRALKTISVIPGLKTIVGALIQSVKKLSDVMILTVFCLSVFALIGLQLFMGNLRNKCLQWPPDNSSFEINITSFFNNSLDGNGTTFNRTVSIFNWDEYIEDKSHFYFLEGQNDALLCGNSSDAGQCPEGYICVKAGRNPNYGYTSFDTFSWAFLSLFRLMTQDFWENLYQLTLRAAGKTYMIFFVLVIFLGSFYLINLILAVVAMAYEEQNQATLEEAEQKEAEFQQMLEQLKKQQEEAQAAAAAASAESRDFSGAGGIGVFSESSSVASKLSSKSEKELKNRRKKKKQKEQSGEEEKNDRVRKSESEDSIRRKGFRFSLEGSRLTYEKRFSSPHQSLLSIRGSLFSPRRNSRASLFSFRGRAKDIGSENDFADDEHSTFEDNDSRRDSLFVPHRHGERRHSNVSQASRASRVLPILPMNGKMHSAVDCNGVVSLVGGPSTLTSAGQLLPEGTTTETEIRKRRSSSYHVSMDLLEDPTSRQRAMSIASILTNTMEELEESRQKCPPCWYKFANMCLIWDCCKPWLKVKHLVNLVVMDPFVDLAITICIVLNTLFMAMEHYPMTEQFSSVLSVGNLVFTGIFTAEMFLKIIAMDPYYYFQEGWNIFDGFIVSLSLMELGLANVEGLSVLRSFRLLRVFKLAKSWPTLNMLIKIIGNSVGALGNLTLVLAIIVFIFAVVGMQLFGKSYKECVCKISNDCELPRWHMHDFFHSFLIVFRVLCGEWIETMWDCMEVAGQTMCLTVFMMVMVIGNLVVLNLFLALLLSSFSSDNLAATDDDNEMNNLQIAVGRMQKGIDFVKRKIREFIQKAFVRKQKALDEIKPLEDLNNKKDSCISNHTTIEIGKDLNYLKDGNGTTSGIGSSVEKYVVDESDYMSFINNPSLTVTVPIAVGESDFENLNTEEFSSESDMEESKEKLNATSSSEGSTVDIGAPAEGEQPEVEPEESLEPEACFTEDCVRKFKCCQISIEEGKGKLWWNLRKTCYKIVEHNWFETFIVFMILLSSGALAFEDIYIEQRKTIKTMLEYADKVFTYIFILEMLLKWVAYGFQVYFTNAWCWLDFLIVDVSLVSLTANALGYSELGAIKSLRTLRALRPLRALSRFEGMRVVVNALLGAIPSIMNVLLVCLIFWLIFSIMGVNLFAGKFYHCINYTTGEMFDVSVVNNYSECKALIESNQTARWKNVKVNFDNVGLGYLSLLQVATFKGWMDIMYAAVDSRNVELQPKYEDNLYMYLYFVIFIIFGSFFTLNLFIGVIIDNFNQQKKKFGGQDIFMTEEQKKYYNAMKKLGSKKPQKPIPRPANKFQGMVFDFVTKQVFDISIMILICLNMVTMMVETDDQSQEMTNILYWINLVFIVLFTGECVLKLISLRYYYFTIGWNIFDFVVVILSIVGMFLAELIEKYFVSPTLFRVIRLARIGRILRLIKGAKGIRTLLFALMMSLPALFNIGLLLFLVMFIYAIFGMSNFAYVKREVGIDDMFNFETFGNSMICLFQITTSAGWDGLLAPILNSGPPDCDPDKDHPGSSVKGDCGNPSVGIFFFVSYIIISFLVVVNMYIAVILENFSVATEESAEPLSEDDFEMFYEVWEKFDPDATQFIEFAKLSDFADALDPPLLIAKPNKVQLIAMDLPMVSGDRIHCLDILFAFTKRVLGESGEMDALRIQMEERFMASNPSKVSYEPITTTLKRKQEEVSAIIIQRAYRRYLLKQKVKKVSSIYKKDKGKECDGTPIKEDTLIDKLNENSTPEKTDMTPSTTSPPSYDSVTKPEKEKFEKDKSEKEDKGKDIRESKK
hNaV1.2, sequence (Q07699 19-218, further chain): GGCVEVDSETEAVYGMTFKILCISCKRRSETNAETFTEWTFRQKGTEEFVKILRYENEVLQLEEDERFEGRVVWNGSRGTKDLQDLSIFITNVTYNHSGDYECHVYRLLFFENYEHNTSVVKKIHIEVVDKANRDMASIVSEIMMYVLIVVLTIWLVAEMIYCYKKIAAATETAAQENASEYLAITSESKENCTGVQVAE
Protocol: Unless otherwise specified, all cell culture reagents were obtained from Life Technologies (Carlsbad, CA, USA). The human neuroblastoma cell line SH-SY5Y (ATCC CRL-2266; Manassas, VA, USA) was maintained in RPMI medium supplemented with 15% fetal bovine serum (FBS) and 2 mM L-glutamine. HEK293 cells stably expressing human NaV channel isoforms together with the β1 auxiliary subunit (SB Drug Discovery, Glasgow, UK) were propagated in Minimal Essential Medium (MEM; Sigma-Aldrich, St. Louis, MO, USA) containing 10% FBS, 100 U/mL penicillin, 100 µg/mL streptomycin, 2 mM L-glutamine, and selective antibiotics (blasticidin, geneticin, and zeocin) at concentrations recommended by the supplier. […]
Sodium channel currents were recorded from HEK293 cells expressing human NaV isoforms together with the β1 auxiliary subunit (SB Drug Discovery, Glasgow, UK) using the QPatch 16X automated whole-cell patch-clamp platform (Sophion Bioscience A/S, Ballerup, Denmark). […] For determining the potency of Oa1a peptides to inhibit peak current, the maximum peak current within the 20 ms at 0 mV was measured. For determining the potency of Oa1a-NH2 to slow fast inactivation, peak current values were measured at 20 ms of the 0 mV depolarization step. […]
For calcium influx experiments, bioactivity comparisons between venom fractions and controls were based on the difference between the maximal and minimal fluorescence intensity values obtained from single-replicate assays. […] Reversibility and dissociation kinetics were analyzed by fitting data with a single-phase exponential decay model, while voltage-dependence of steady-state activation and inactivation parameters were derived from Boltzmann sigmoid fits of normalized conductance (G/Gmax) or current (I/Imax) values to determine the half-activation or half-inactivation voltages (V50). Data are expressed as mean ± SEM, where n represents the number of individual cells analyzed.

NaV1.1 = NaV1.1 (Homo sapiens, UniProt P35498); experiment: Off-rate / reversibility on NaV1.1, patch clamp with saline washes; format: cell-based; settings: for 95% CI of off-rate (dissociation time), NaV1.1: peptide at 10× IC50 for 10 min, then saline washes, 3 to 5 independent repeats; for Reversibility on NaV1.1 by washing: peptide at 10× IC50 for NaV1.1, then washing
Protocol: For off-rate measurements, cells at a holding potential −80 mV were incubated with peptide for 10 min at a concentration equivalent to 10 times their IC50 for the NaV subtype being analyzed, followed by saline washes. Na^+ currents were assessed every 10 s utilizing a holding potential −80 mV and currents elicited by 20 ms voltage step to 0 mV from a −120 mV conditioning pulse applied for 200 ms. Ion currents (INa) plotted as I/Imax, where I = current value and Imax = highest current value within the experiment.
(§1) For calcium influx experiments, bioactivity comparisons between venom fractions and controls were based on the difference between the maximal and minimal fluorescence intensity values obtained from single-replicate assays. Electrophysiological data analysis was conducted using GraphPad Prism (version 8; GraphPad Software, San Diego, CA, USA). Nonlinear regression was applied to fit the concentration–response relationships using a variable Hill slope: log(inhibitor) versus normalized response for determining IC50 values, and log(agonist) versus normalized response for EC50 calculations. Reversibility and dissociation kinetics were analyzed by fitting data with a single-phase exponential decay model, while voltage-dependence of steady-state activation and inactivation parameters were derived from Boltzmann sigmoid fits of normalized conductance (G/Gmax) or current (I/Imax) values to determine the half-activation or half-inactivation voltages (V50). Data are expressed as mean ± SEM, where n represents the number of individual cells analyzed.

NaV1.7 = experiment: Voltage dependence of steady-state inactivation and activation, NaV1.7; format: cell-based, human; settings: for V50 of steady-state activation in presence of peptide, NaV1.7: control V50 = −28 ± 0.5 mV (sOa1a-NH2 experiment), −25 ± 0.7 mV (sOa1a-OH experiment); for V50 of steady-state activation in presence of peptide, NaV1.7 / V50 of steady-state inactivation in presence of peptide, NaV1.7: 5 min at IC50 concentration, mean ± SEM, 3 to 5 repeats; for V50 of steady-state inactivation in presence of peptide, NaV1.7: control V50 = −66 ± 0.7 mV (sOa1a-NH2 experiment), −66 ± 0.3 mV (sOa1a-OH experiment); for Effect on current–voltage relationships (activation, steady-state inactivation), NaV1.7: peptide at IC50 concentration
Protocol: The voltage dependence of steady-state activation was assessed by recording sodium currents evoked by depolarizing voltage steps ranging from −110 mV to +80 mV in 5 mV increments. Peak conductance (GNa) was derived using the equation G = I/(V − Vrev), where I denotes the measured current, V the applied membrane potential, and Vrev the sodium reversal potential. To evaluate the voltage dependence of steady-state fast inactivation, a two-pulse protocol was used. Cells were conditioned with 500 ms pre-pulses at potentials between −130 mV and −10 mV (10 mV increments), followed by a 20 ms test depolarization to 0 mV to elicit sodium currents. The steady-state fast inactivation currents were plotted as I/Imax, where I = current value and Imax = highest current value within the experiment. The voltage-dependence of steady-state activation and inactivation were determined either in the absence of peptide or following 5 min exposure to peptide at the respective IC50 concentration at the NaV subtype analyzed to streamline the investigation using an effective single concentration as previously described by us.
as §1

CaV3.2 = experiment: hCaV3.2 (T-type) current, automated whole-cell patch clamp (QPatch 16X); format: cell-based, human; settings: up to 10 μM tested; holding −90 mV, 60 ms steps to −30 mV from −120 mV 60 ms conditioning pulse; 5 min incubation; Figure S1
Protocol: Unless otherwise specified, all cell culture reagents were obtained from Life Technologies (Carlsbad, CA, USA). The human neuroblastoma cell line SH-SY5Y (ATCC CRL-2266; Manassas, VA, USA) was maintained in RPMI medium supplemented with 15% fetal bovine serum (FBS) and 2 mM L-glutamine. HEK293 cells stably expressing human NaV channel isoforms together with the β1 auxiliary subunit (SB Drug Discovery, Glasgow, UK) were propagated in Minimal Essential Medium (MEM; Sigma-Aldrich, St. Louis, MO, USA) containing 10% FBS, 100 U/mL penicillin, 100 µg/mL streptomycin, 2 mM L-glutamine, and selective antibiotics (blasticidin, geneticin, and zeocin) at concentrations recommended by the supplier. HEK293T cells expressing the human CaV3.2 channel (a generous gift from Prof. Emmanuel Bourinet, Institut de Génomique Fonctionnelle, Université de Montpellier, France, and Prof. Edward Perez-Reyes, University of Virginia School of Medicine, USA) were grown in Dulbecco’s MEM supplemented with 10% FBS, 100 U/mL penicillin, 100 µg/mL streptomycin, and 750 µg/mL geneticin.
CaV3.2 channel currents were recorded from HEK293 cells expressing hCaV3.2 using an automated QPatch 16X platform (Sophion Bioscience A/S). […]

CC(C)C[C@@H]1NC(=O)[C@H](Cc2ccccc2)NC(=O)[C@H](Cc2ccc(O)cc2)NC(=O)[C@H](CCCNC(=N)N)NC(=O)[C@@H](NC(=O)[C@@H](N)CCC(=O)O)CSSC[C@@H]2NC(=O)[C@@H]3CSSC[C@@H](C(=O)N[C@H](C(=O)N[C@@H](Cc4c[nH]c5ccccc45)C(=O)N[C@@H](CC(=O)O)C(=O)N[C@@H](Cc4c[nH]c5ccccc45)C(=O)N[C@H](C(=O)N[C@@H](Cc4ccccc4)C(N)=O)[C@@H](C)O)C(C)C)NC(=O)[C@H](Cc4c[nH]c5ccccc45)NC(=O)[C@H](CCC(N)=O)NC(=O)[C@H](Cc4c[nH]cn4)NC(=O)[C@H](CCCCN)NC(=O)[C@H](CC(N)=O)NC(=O)[C@H](Cc4c[nH]cn4)NC(=O)[C@H](CSSC[C@H](NC(=O)CNC(=O)CNC1=O)C(=O)N[C@@H](CO)C(=O)N[C@@H](CCC(N)=O)C(=O)NCC(=O)N[C@@H](CCC(=O)O)C(=O)N[C@@H](CCCCN)C(=O)N3)NC(=O)[C@H](C(C)C)NC(=O)[C@H](CC(C)C)NC(=O)[C@H](Cc1c[nH]cn1)NC(=O)[C@H](CCC(=O)O)NC2=O [sOa1a-NH2] (H-ECRYFLGGCSQGEKCCEHLVCHNKHQWCVWDWTF-NH2; disulfide 2-16, 9-21, 15-28; N-terminus assumed)
IC50 (hNaV1.2): 154 ± 7 nM | 95% CI of off-rate (dissociation time), NaV1.1 (NaV1.1): Off-rate 4.6 min (95% CI = 4.27 to 4.97 min) | Reversibility on NaV1.1 by washing (NaV1.1): completely reversed by washing | Increase in off-rate through C-terminal amidation, NaV1.1 (NaV1.1; sOa1a-NH2 vs sOa1a-OH): 1 min | V50 of steady-state activation in presence of peptide, NaV1.7 (NaV1.7): −30 mV | V50 of steady-state inactivation in presence of peptide, NaV1.7 (NaV1.7): −69 mV | Effect on current–voltage relationships (activation, steady-state inactivation), NaV1.7 (NaV1.7): remained nearly unaltered; also recorded: did not alter the voltage of activation or the steady-state inactivation | Activity on CaV3.2 (CaV3.2): did not observe activity

CC(C)C[C@@H]1NC(=O)[C@H](Cc2ccccc2)NC(=O)[C@H](Cc2ccc(O)cc2)NC(=O)[C@H](CCCNC(=N)N)NC(=O)[C@@H](NC(=O)[C@@H](N)CCC(=O)O)CSSC[C@@H]2NC(=O)[C@@H]3CSSC[C@@H](C(=O)N[C@H](C(=O)N[C@@H](Cc4c[nH]c5ccccc45)C(=O)N[C@@H](CC(=O)O)C(=O)N[C@@H](Cc4c[nH]c5ccccc45)C(=O)N[C@H](C(=O)N[C@@H](Cc4ccccc4)C(=O)O)[C@@H](C)O)C(C)C)NC(=O)[C@H](Cc4c[nH]c5ccccc45)NC(=O)[C@H](CCC(N)=O)NC(=O)[C@H](Cc4c[nH]cn4)NC(=O)[C@H](CCCCN)NC(=O)[C@H](CC(N)=O)NC(=O)[C@H](Cc4c[nH]cn4)NC(=O)[C@H](CSSC[C@H](NC(=O)CNC(=O)CNC1=O)C(=O)N[C@@H](CO)C(=O)N[C@@H](CCC(N)=O)C(=O)NCC(=O)N[C@@H](CCC(=O)O)C(=O)N[C@@H](CCCCN)C(=O)N3)NC(=O)[C@H](C(C)C)NC(=O)[C@H](CC(C)C)NC(=O)[C@H](Cc1c[nH]cn1)NC(=O)[C@H](CCC(=O)O)NC2=O [sOa1a-OH] (H-ECRYFLGGCSQGEKCCEHLVCHNKHQWCVWDWTF-OH; disulfide 2-16, 9-21, 15-28; N-terminus assumed)
IC50 (hNaV1.2): > 3000 nM | Activity on NaV1.2 (in words) (hNaV1.2; tested at up to 3 μM): no activity | 95% CI of off-rate (dissociation time), NaV1.1 (NaV1.1): Off-rate 3.56 min (95% CI = 3.35 to 3.80 min) | Reversibility on NaV1.1 by washing (NaV1.1): completely reversed by washing | V50 of steady-state activation in presence of peptide, NaV1.7 (NaV1.7): −22 mV | V50 of steady-state inactivation in presence of peptide, NaV1.7 (NaV1.7): −71 mV | Effect on current–voltage relationships (activation, steady-state inactivation), NaV1.7 (NaV1.7): remained nearly unaltered | Activity on CaV3.2 (CaV3.2): did not observe activity
